According to US6472424B1, “Stabilized antimicrobial compositions containing halopropynyl compounds and benzylidene camphors” (Troy Technology Corporation, Inc., priority 2000, dated 2002):

Assay: Light-induced yellowing of IPBC-containing white test paint film after UV exposure
Assay type: physicochemical
Conditions: for effectiveness of the UV absorber in inhibiting degradation/yellowing of the IPBC: same test, assessment in words compared to the blank; for Δb value (difference in yellowing between blank paint and candidate paint sample): styrenated acrylic white house paint, IPBC 0.3%, formulation 20% IPBC / 40% UV absorber / 40% N-methyl pyrrolidone, paint film exposed to 340 nm UV radiation for four hours
Protocol: In the following examples a styrenated acrylic white house paint was used as the test medium to measure the effect of sunlight on the degradation of IPBC in various IPBC-containing compositions. The test paint composition was prepared by adding ingredients 2 through 6 slowly to a mixer containing water (ingredient 1). After mixing the composition for about 10 minutes, ingredients 7 through 11 were added, and mixing was continued until a smooth dispersion was obtained. Then the final two ingredients were added. Additional water can be added to obtain a desired viscosity.
In the following examples, a number of liquid formulations were prepared, each containing (1) 20% by weight IPBC (Troysan ® Polyphase® P-100), (2) 40% by weight of one of the UV absorbers indicated in each example which follows, and (3) 40% by weight of N-methyl pyrrolidone as a liquid vehicle. Each formulation was then incorporated into the white test paint by mixing in an amount sufficient to provide a test paint having IPBC present at a level of 0.3%. The paint formulations containing IPBC and UV absorbers were then applied on a Leneta chart with help of a 3 mil Bird type applicator. The paint film was allowed to dry for 10-15 minutes and then sprayed with a clear non-yellowing varnish (-3 mils), namely, Kamar Varnish 1312. The varnish was obtained from Krylon Products Group, The Specialty Division, Division of Sherwin-Williams Company, Ohio. The object of the varnish was to trap any of the chromophores formed during subsequent UV light exposure and to assure a short and reproducible test for accessing light-induced yellowing.
The paint film thus produced was exposed to 340 nm UV radiation for four hours and the yellowing was measured by Microflash 200D or Byk Handy Color measurement device. The difference in yellowing between a blank (the white test paint without fungicide) and the candidate paint sample, Δb, was recorded and used as the response for each test.

Compound	effectiveness of the UV absorber in inhibiting degradation/yellowing of the IPBC	Δb value (difference in yellowing between blank paint and candidate paint sample)
Cc1ccccc1C=C1C(=O)C2(C)CCC1C2(C)C (stereo not drawn) [3-(2-methylbenzylidene)camphor]	reasonably effective	3.4
CC12CCC(C(=Cc3ccc4c(c3)OCCO4)C1=O)C2(C)C (stereo not drawn) [3-(3,4-dioxoethylenebenzylidene)camphor]	effective in inhibiting degradation of the IPBC	2.4
CC12CCC(C(=Cc3cccc(Cl)c3)C1=O)C2(C)C (stereo not drawn) [3-(3-chlorobenzylidene)camphor]	reasonably effective	3.3
Cc1cccc(C=C2C(=O)C3(C)CCC2C3(C)C)c1 (stereo not drawn) [3-(3-methylbenzylidene)camphor]	effective in inhibiting degradation of the IPBC	2.7
CC12CCC(C(=Cc3ccc(Br)cc3)C1=O)C2(C)C (stereo not drawn) [3-(4-bromobenzylidene)camphor]	reasonably effective	3.6
CCCCOc1ccc(C=C2C(=O)C3(C)CCC2C3(C)C)cc1 (stereo not drawn) [3-(4-butoxybenzylidene)camphor]	very effective	1.8
CCOc1ccc(C=C2C(=O)C3(C)CCC2C3(C)C)cc1 (stereo not drawn) [3-(4-ethoxybenzylidene)camphor]	very effective	1.3
CC(C)c1ccc(C=C2C(=O)C3(C)CCC2C3(C)C)cc1 (stereo not drawn) [3-(4-isopropylbenzylidene)camphor]	reasonably effective	3.5
COc1ccc(C=C2C(=O)C3(C)CCC2C3(C)C)cc1 (stereo not drawn) [3-(4-methoxybenzylidene)camphor]	very effective	1.3
Cc1ccc(C=C2C(=O)C3(C)CCC2C3(C)C)cc1 (stereo not drawn) [3-(4-methylbenzylidene)camphor]	effective in inhibiting degradation of the IPBC	2.5
CCCCNC(=O)OCC#CI [IPBC, 3-iodo-2-propynyl butyl carbamate, reference compound]	a significant yellow color develops	7.1
CC12CCC(C(=Cc3ccccc3)C1=O)C2(C)C (stereo not drawn) [benzylidenecamphor]	effective in inhibiting degradation of the IPBC	2.8
